Measurements reported in patent US5371102A, “Compositions and methods of inhibiting thyroid activity” (priority 1993, dated 1994).

Assays:
[1] = chemical oxidation stoichiometry of thiones; format: physicochemical
Protocol: Oxidation stoichiometries were determined for the thione compounds MBI, MMBI and DMMBI by incubating the thiones with varying amounts of PBA (0-250μM). The rapid reaction (t1/2 <10 s at 25° C.) of benzimidazole-2-thiones with PBA in methanol provided a convenient method for determining oxidation stoichiometry.
Oxidation stoichiometries were determined spectrophoto, metrically, using a Hewlett Packard 8452A diode array spectrophotometer, by measuring thione concentration at 305 nm as a function of PBA concentration. Hydroperoxide content was determined iodometrically. Stoichiometries of substrate consumption/product formation were also determined by addition of limiting amounts of PBA to 100 μM MBI or MMBI in 50% methanol/pH 7 phosphate. The disappearance of thione and the production of BI, MeBI and bisulfite ion was determined after one hour at 25° C. The production of bisulfite ion was measured […]. The production of sulfate ion was determined by ion chromatography using a AS4A column (Dionex Co., Sunnyvale, CA) with a Dionex Gradient Pump Module and a Dionex CDM II conductivity detector equipped with an AMMS suppressor using 3 mM carbonate/bicarbonate buffer pH 10 as eluant at 2.0 ml/min. Reaction products were also monitored by ^1 H NMR performed at 300 MHz using a Nicolet NT300 or General Electric QE300 spectrometer DSS as a reference.

TPX [2] = target: T1, TPX (Sus scrofa, UniProt P09933); assay: TPX-catalyzed iodide oxidation (triiodide formation), spectrophotometric; format: biochemical, hog
T1 sequence (P09933 15-926): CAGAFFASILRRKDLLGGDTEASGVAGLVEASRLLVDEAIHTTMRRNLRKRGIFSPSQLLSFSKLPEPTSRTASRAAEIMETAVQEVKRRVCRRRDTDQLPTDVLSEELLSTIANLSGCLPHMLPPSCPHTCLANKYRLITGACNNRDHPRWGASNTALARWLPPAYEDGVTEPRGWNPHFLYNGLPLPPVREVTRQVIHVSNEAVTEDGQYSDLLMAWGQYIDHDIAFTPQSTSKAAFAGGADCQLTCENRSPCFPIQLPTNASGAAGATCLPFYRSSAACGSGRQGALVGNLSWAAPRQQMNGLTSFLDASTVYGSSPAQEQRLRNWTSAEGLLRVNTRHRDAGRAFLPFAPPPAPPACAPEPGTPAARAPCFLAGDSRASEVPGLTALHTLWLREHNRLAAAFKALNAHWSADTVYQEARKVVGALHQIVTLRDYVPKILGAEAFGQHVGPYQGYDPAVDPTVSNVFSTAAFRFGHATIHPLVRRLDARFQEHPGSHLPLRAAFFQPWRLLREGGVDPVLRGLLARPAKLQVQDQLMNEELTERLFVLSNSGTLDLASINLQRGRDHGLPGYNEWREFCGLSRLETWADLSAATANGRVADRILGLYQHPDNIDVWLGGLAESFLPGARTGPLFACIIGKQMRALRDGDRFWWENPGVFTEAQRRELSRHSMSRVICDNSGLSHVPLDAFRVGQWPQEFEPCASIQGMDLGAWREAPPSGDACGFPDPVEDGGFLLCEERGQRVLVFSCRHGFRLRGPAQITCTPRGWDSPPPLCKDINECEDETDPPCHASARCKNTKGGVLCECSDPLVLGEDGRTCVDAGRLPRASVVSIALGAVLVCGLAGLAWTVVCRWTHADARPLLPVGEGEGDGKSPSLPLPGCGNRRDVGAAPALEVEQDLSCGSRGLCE
Description: Materials used in the examples below were obtained from the following sources. Bovine LPX, bovine liver catalase, glucose oxidase, 30% hydrogen peroxide, glucose, guaiacol, ABTS and deuterium oxide were purchased from Sigma Chemical Company. Selenium dioxide, MBI ^13 CH3 I and PBA were purchased from Aldrich Chemical Company and PBA was purified as previously described by Fieset et al., Reagents for Organic Synthesis, Vol. I, pp.135-139, John Wiley and Sons, N.Y. (1967). LPX purity was checked by PAGE, as described by Doerge, D.R., et al. in, Biochem. Pharmacol., Vol.36, pp.972-974 (1986). TPX was purified from hog thyroids obtained from a local slaughterhouse by published procedures. Doerge & Takazowa, Chemical Research in Toxicology, Vol. 3, pp. 98-101 (1990). TPX purity was determined by LC and its concentration determined spectophotometrically. Hydroperoxide concentrations were determined by iodometric titration, as described by Kolthoff, et al., in "Quantitative Chemical Analysis", Macmillan, London, pp.842-860 (1969). MMBI, and BI were synthesized by published procedures as described by Doerge, D.R., Biochem, Vol. 27, pp. 3697-3700 (1988) and were recrystallized from aqueous ethanol. MeBI was purified by distillation and DMeBI^+ was synthesized and purified by recrystallization from ethyl acetate/methanol. 1-^13 C-MMBI was synthesized from ^13 CH3 I according to the procedure disclosed by Doerge, D.R., in, J. Lab. Comp. and Radiopharm., Vol.25, pp.985-990 (1988). PPHP and PPA were prepared, purified and analyzed as previously described by Doerge, Biochem, Vol.27, p.11 (1988). The methyl ester of 1-methyl-benzimidazole-2-sulfinic acid was prepared by addition of hydrogen peroxide (5 equivalents of a 10 M solution) to MMBI (0.1 M) in methanol. The products, MeBI and the ester, were obtained following preparative TLC on silica (Uniplate, Analtech Co., Newark, DL) using 5% methanol/chloroform as eluant. […]
1,3-diacetyl MBI (AczMBI) was synthesized according to the method published by Doerge et al., Syn. […] Varying quantities of Ac2 MBI were incubated with TPX, H2 O2, and I^-. […]

TPX [3] = target: T1, TPX; assay: TPX inactivation; format: biochemical, hog
Description: Materials used in the examples below were obtained from the following sources. Bovine LPX, bovine liver catalase, glucose oxidase, 30% hydrogen peroxide, glucose, guaiacol, ABTS and deuterium oxide were purchased from Sigma Chemical Company. Selenium dioxide, MBI ^13 CH3 I and PBA were purchased from Aldrich Chemical Company and PBA was purified as previously described by Fieset et al., Reagents for Organic Synthesis, Vol. I, pp.135-139, John Wiley and Sons, N.Y. (1967). LPX purity was checked by PAGE, as described by Doerge, D.R., et al. in, Biochem. Pharmacol., Vol.36, pp.972-974 (1986). TPX was purified from hog thyroids obtained from a local slaughterhouse by published procedures. Doerge & Takazowa, Chemical Research in Toxicology, Vol. 3, pp. 98-101 (1990). TPX purity was determined by LC and its concentration determined spectophotometrically. Hydroperoxide concentrations were determined by iodometric titration, as described by Kolthoff, et al., in "Quantitative Chemical Analysis", Macmillan, London, pp.842-860 (1969). MMBI, and BI were synthesized by published procedures as described by Doerge, D.R., Biochem, Vol. 27, pp. 3697-3700 (1988) and were recrystallized from aqueous ethanol. MeBI was purified by distillation and DMeBI^+ was synthesized and purified by recrystallization from ethyl acetate/methanol. 1-^13 C-MMBI was synthesized from ^13 CH3 I according to the procedure disclosed by Doerge, D.R., in, J. Lab. Comp. and Radiopharm., Vol.25, pp.985-990 (1988). PPHP and PPA were prepared, purified and analyzed as previously described by Doerge, Biochem, Vol.27, p.11 (1988). The methyl ester of 1-methyl-benzimidazole-2-sulfinic acid was prepared by addition of hydrogen peroxide (5 equivalents of a 10 M solution) to MMBI (0.1 M) in methanol. The products, MeBI and the ester, were obtained following preparative TLC on silica (Uniplate, Analtech Co., Newark, DL) using 5% methanol/chloroform as eluant.
DMMBI was synthesized according to a published method. Duffin et al., J. Chem. Soc., Part II, pp.364-365 (1956). Samples including TPX, H2 O2, and I^- were incubated with and without DMMBI. Triiodide formation was observed spectrophotometrically with respect to time.

- equivalents of oxidant required ([1]; PBA or hydrogen peroxide, aqueous medium, products DMeBI+ and sulfate): 3 equivalents
- moles of oxidant required for total reaction ([1]; PBA, FIG. 4): three
- equivalents of hydroperoxide required per mole of thione ([1]; hydroperoxides): 3 equivalents
- inhibition of iodide ion oxidation (TPX [2]; TPX/hydrogen peroxide): inhibits only iodide ion oxidation
- TPX inactivation (TPX [3]; 100 μM, 1 minute incubation): does not inactivate TPX
- TPX inactivation (TPX [3]; presence of hydrogen peroxide): does not inactivate LPX or TPX
Compound: Cn1c(=S)n(C)c2ccccc21 [DMMBI, 1,3-dimethylbenzimidazole-2-thione]
- effect on triiodide formation (TPX [2]; TPX, H2O2 and I-): causes a lag in triiodide formation, followed by an increase in the rate of triiodide formation approximating the control rate
